In general, IC50 refers to the concentration needed to halve the response being measured.

Read-outs that look alike come from different tables or passages of the source.

The text below walks through data of patent US11648254B2 (Kumquat Biosciences Inc., priority 2021, dated 2023).

The test system of test [1] is NCI-H1975 cells (EGFR T790M L858R). The test can be described thus: EGFR-SOS cellular inhibition assay (CellTiter-Glo, 3D). Particulars: Homo sapiens. It is filed as cell-based. Background: ATP-based viability assays read luminescence as a measure of living cells.
A further test concerns the target SOS1 (Homo sapiens (Human), UniProt Q07889). The experiment in a line: Ras-SOS interaction assay (HTRF). It is filed as biochemical. For orientation: Time-resolved FRET reads energy transfer from a long-lived donor to a nearby acceptor.
Test [2] has as its system MIA PaCa-2 cells (K-Ras G12C). The experiment in a line: Ras-SOS cellular growth inhibition assay (CellTiter-Glo, 3D). It is filed as cell-based. Particulars: Homo sapiens. Summed up:
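Growth read by CellTiter-Glo luminescence about 5 days after dosing with 3-fold dilutions (9 points), added one day post-seeding. Cells: MIA PaCa-2, 3D culture on ultra-low-attachment surface, medium DMEM/Ham's F12 plus 10% FCS and 2.5% horse serum; IC50 by four-parameter fit.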

[3] abbreviates: 120 h, NCI-H1975, 3D proliferation, about 5 days, read-out: Bio-Cell-Prolif-3D (H1975 IC50).
The mark [4] stands for this setting: NCI-H1975, EGFR T790M L858R, read-out: IC50 in inhibiting growth of NCI-H1975 cell line.
The mark [5] stands for this setting: K-RasG13D utilized, read-out: IC50 inhibition of SOS.
[6] abbreviates: K-RasG13D, read-out: IC50 value against SOS1.
Setting [7] is: MIA PaCa-2, 120 h, MIA PaCa-2, 3D proliferation, about 5 days, read-out: Bio-Cell-Prolif-3D (MiaPaca2 IC50).
Where [8] appears, read: MIA PaCa-2, MIA PaCa-2, read-out: IC50 in inhibiting MIA PaCa-2 cell growth.

SOS1, sequence (Q07889 564-1049): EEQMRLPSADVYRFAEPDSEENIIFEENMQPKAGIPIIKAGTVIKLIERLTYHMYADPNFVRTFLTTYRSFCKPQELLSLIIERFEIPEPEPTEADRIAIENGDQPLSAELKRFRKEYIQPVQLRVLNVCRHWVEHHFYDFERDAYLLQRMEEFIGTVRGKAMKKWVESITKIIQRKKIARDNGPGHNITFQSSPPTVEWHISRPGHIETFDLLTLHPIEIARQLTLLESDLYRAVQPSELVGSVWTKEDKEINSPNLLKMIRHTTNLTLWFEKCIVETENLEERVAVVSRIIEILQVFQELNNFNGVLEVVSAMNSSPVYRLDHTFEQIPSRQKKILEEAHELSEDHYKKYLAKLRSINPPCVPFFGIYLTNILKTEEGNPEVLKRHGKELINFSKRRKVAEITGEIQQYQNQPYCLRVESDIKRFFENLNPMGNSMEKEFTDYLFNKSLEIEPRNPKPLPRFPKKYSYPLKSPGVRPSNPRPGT

As for `COc1nc2nc(C)nc(N[C@H](C)c3cccc(C(F)(F)F)c3C)c2cc1N1CCS(=O)(=O)CC1` [Compound 142, (R)-4-(7-methoxy-2-methyl-4-((1-(2-methyl-3-(trifluoromethyl)phenyl)ethyl)amino)pyrido[2,3-d]pyrimidin-6-yl)thiomorpholine 1,1-dioxide], the IC50 in test [1] (setting [3]) is not above 1000 nM; in test [1] (setting [4]), less than 500 nM; on SOS1 (setting [5]), less than 100 nM; on SOS1 (setting [6]) it was less than 50 nM; in test [2] (setting [7]), not above 1000 nM; in test [2] (setting [8]) it was less than 500 nM.
As for `COc1nc2ncnc(N[C@H](C)c3cccc(C(F)(F)CO)c3F)c2cc1N1CCN(C(C)C)CC1` [Compound 204, (R)-2,2-difluoro-2-(2-fluoro-3-(1-((6-(4-isopropylpiperazin-1-yl)-7-methoxypyrido[2,3-d]pyrimidin-4-yl)amino)ethyl)phenyl)ethan-1-ol], the half-maximal inhibitory concentration (IC50) in test [1] (setting [3]) is not above 1000 nM; in test [1] (setting [4]), less than 500 nM; on SOS1 (setting [5]), less than 100 nM; on SOS1 (setting [6]) it was less than 50 nM; in test [2] (setting [7]), not above 1000 nM; in test [2] (setting [8]), less than 500 nM.
In the case of `Cc1nc(N[C@H](C)c2cccc(C(F)F)c2F)c2cc(C3(C#N)CC3)c(O[C@@H]3CCN(C)C3)nc2n1` [Compound 226, 1-(4-(((R)-1-(3-(difluoromethyl)-2-fluorophenyl)ethyl)amino)-2-methyl-7-(((R)-1-methylpyrrolidin-3-yl)oxy)pyrido[2,3-d]pyrimidin-6-yl)cyclopropane-1-carbonitrile], the half-maximal inhibitory concentration (IC50) in test [1] (setting [3]) is not above 1000 nM; in test [1] (setting [4]) it was less than 500 nM; at SOS1 (setting [5]), less than 100 nM; in test [2] (setting [7]), 1000 to 10000 nM.
Take `Cc1nc(N[C@H](C)c2cccc(C(F)F)c2F)c2cc(C3(C#N)CC3)c(OC[C@H]3CCCN3C)nc2n1` [Compound 235, 1-(4-(((R)-1-(3-(difluoromethyl)-2-fluorophenyl)ethyl)amino)-2-methyl-7-(((R)-1-methylpyrrolidin-2-yl)methoxy)pyrido [2,3-d]pyrimidin-6-yl)cyclopropane-1-carbonitrile]: the IC50 in test [1] (setting [3]) was not above 1000 nM; in test [1] (setting [4]), less than 500 nM; at SOS1 (setting [5]), less than 100 nM; at SOS1 (setting [6]), less than 50 nM; in test [2] (setting [7]), not above 1000 nM.
Turning to `C[C@H](O)C(F)(F)c1cccc([C@@H](C)Nc2ncnc3nc(Cl)c(C4(C#N)CC4)cc23)c1` [Compound 265, 1-(7-chloro-4-(((R)-1-(3-((S)-1,1-difluoro-2-hydroxypropyl)phenyl)ethyl)amino)pyrido[2,3-d]pyrimidin-6-yl) cyclopropane-1-carbonitrile], the half-inhibitory concentration (IC50) is not above 1000 nM in test [1] (setting [3]); less than 500 nM in test [1] (setting [4]); less than 100 nM at SOS1 (setting [5]); less than 50 nM on SOS1 (setting [6]); not above 1000 nM in test [2] (setting [7]); less than 500 nM in test [2] (setting [8]).
As for `Cc1nc(N[C@H](C)c2cccc(C(F)F)c2F)c2cc(S(=O)(=O)C3CCN(C)CC3)c(C)nc2n1` [Compound 138, (R)-N-(1-(3-(difluoromethyl)-2-fluorophenyl)ethyl)-2,7-dimethyl-6-((1-methylpiperidin-4-yl)sulfonyl)pyrido[2,3-d]pyrimidin-4-amine], the 50% inhibitory concentration (IC50) is not above 1000 nM in test [1] (setting [3]); less than 500 nM in test [1] (setting [4]); less than 50 nM on SOS1 (setting [6]); not above 1000 nM in test [2] (setting [7]); less than 500 nM in test [2] (setting [8]).
On to `Cc1nc(N[C@H](C)c2cccc(C(F)F)c2F)c2cc(C3(C(F)F)CC3)c(OC3CN(C)C3)nc2n1` [Compound 190, (R)-N-(1-(3-(difluoromethyl)-2-fluorophenyl)ethyl)-6-(1-(difluoromethyl)cyclopropyl)-2-methyl-7-((1-methylazetidin-3-yl)oxy)pyrido[2,3-d] pyrimidin-4-amine], for which the IC50 in test [1] (setting [3]) is not above 1000 nM; in test [1] (setting [4]), less than 500 nM; on SOS1 (setting [5]), less than 100 nM; on SOS1 (setting [6]) it was less than 50 nM; in test [2] (setting [7]), not above 1000 nM; in test [2] (setting [8]) it was less than 500 nM.
For `COc1nc2ncnc(N[C@H](C)c3cccc(C(F)(F)C4CCN(C(C)C)CC4)c3F)c2cc1N1CCN(C(C)C)CC1` [Compound 263, (R)—N-(1-(3-(difluoro(1-isopropylpiperidin-4-yl)methyl)-2-fluorophenyl)ethyl)-6-(4-isopropylpiperazin-1-yl)-7-methoxypyrido[2,3-d]pyrimidin-4-amine], the IC50 in test [1] (setting [3]) is not above 1000 nM; in test [1] (setting [4]), less than 500 nM; on SOS1 (setting [5]) it was less than 100 nM; on SOS1 (setting [6]), less than 50 nM; in test [2] (setting [7]), not above 1000 nM; in test [2] (setting [8]), less than 500 nM.
As for `COc1nc2ncnc(N[C@H](C)c3cccc(C(F)(F)F)c3F)c2cc1N1CCN(C2CCOCC2)CC1` [Compound 166, (R)-N-(1-(2-fluoro-3-(trifluoromethyl)phenyl)ethyl)-7-methoxy-6-(4-(tetrahydro-2H-pyran-4-yl)piperazin-1-yl)pyrido[2,3-d]pyrimidin-4-amine], the IC50 in test [1] (setting [3]) was not above 1000 nM; in test [1] (setting [4]) it was less than 500 nM; on SOS1 (setting [5]), less than 100 nM; on SOS1 (setting [6]) it was less than 50 nM; in test [2] (setting [7]) it was not above 1000 nM; in test [2] (setting [8]) it was less than 500 nM.
As for `COc1nc2nc(C)nc(N[C@H](C)c3cccc(C(F)(F)C(C)(C)OC4CN(C(C)C)C4)c3F)c2cc1N1CCN(C(C)C)CC1` [Compound 242, (R)-N-(1-(3-(1,1-difluoro-2-((1-isopropylazetidin-3-yl)oxy)-2-methylpropyl)-2-fluorophenyl)ethyl)-6-(4-isopropylpiperazin-1-yl)-7-methoxy-2-methylpyrido[2,3-d]pyrimidin-4-amine], the IC50 in test [1] (setting [3]) was not above 1000 nM; in test [1] (setting [4]), less than 500 nM; on SOS1 (setting [5]), less than 100 nM; at SOS1 (setting [6]) it was less than 50 nM; in test [2] (setting [7]), not above 1000 nM; in test [2] (setting [8]) it was less than 500 nM.
On to `COc1nc2nc(C)nc(N[C@H](C)c3cccc(C(F)(F)F)c3C)c2cc1C1(C#N)CCN(C(C)C)CC1` [Compound 285, (R)-1-isopropyl-4-(7-methoxy-2-methyl-4-((1-(2-methyl-3-(trifluoromethyl)phenyl)ethyl)amino)pyrido[2,3-d]pyrimidin-6-yl)piperidine-4-carbonitrile], for which the IC50 in test [1] (setting [3]) was not above 1000 nM; at SOS1 (setting [5]) it was less than 100 nM; on SOS1 (setting [6]), less than 50 nM; in test [2] (setting [7]), 1000 to 10000 nM.
`COc1nc2ncnc(N[C@H](C)c3cccc(C(F)(F)C4CCN(C(C)C)CC4)c3F)c2cc1C1CCN(C(C)C)CC1` [Compound 221, (R)-N-(1-(3-(difluoro(1-isopropylpiperidin-4-yl)methyl)-2-fluorophenyl)ethyl)-6-(1-isopropylpiperidin-4-yl)-7-methoxypyrido[2,3-d] pyrimidin-4-amine]: the IC50 was not above 1000 nM in test [1] (setting [3]); less than 500 nM in test [1] (setting [4]); less than 100 nM on SOS1 (setting [5]); less than 50 nM on SOS1 (setting [6]); not above 1000 nM in test [2] (setting [7]); less than 500 nM in test [2] (setting [8]).
On to `COc1nc2nc(C)nc(N[C@H](C)c3cccc(C(F)(F)F)c3C)c2cc1C1(C#N)CC1` [Compound 213, (R)-1-(7-methoxy-2-methyl-4-((1-(2-methyl-3-(trifluoromethyl)phenyl)ethyl)amino)pyrido[2,3-d]pyrimidin-6-yl)cyclopropane-1-carbonitrile], for which the IC50 in test [1] (setting [3]) was not above 1000 nM; at SOS1 (setting [5]), less than 100 nM; in test [2] (setting [7]) it was not above 1000 nM.
